By IC50 is commonly meant the concentration that gives 50% inhibition.

One test deals with recombinant human HDAC1 (Homo sapiens (Human), UniProt Q13547). The experiment in a line: Enzymatic screening, HDAC1 inhibition (fluorogenic FdL_G substrate). In kind it is biochemical. The protocol: (§1) For each test compound, 100× concentrated DMSO solutions at 8 doses were prepared and then diluted in assay buffer (25 mM Tris-HCl, pH 8, 130 mM NaCl, 0.05% Tween-20, 10% Glycerol) to obtain 5× concentrated solutions in relation to the final concentrations (typical final concentration range—6.4-200000 nM or 0.18-50000 nM, final DMSO content—1%). Then 10 μL solution of each test compound concentration were placed on a 96-well plate in triplicate and 15 μL of 3.33× concentrated enzyme solution in the assay buffer containing 3.33× concentrated BSA (final BSA concentration—2 mg/mL for HDAC4, HDAC5 and HDAC9 or 1 mg/mL for other isoforms) and in the case of HDAC6-3.33× concentrated TCEP (final TCEP concentration—200 μM) were added to each well. After a period of preincubation (incubation times and temperatures vary for different isoforms and are shown in table 1) 25 μL of solution containing the substrate were added. As substrate, FLUOR DE LYS® deacetylase substrate (Enzo Life Sciences, cat: BML-KI104, FdL), FLUOR DE LYS®-Green substrate (Enzo Life Sciences, cat: BML-KI572, FdL_G) or Boc-Lys(Tfa)-AMC (Bachem, cat: 4060676.005, Tfal)—2× concentrated solution in assay buffer were used. Following a reaction period (reaction times and temperatures vary for different isoforms and are reported in Table 1), 50 μL of the development solution consisting of concentrate FLUOR DE LYS® developer I (Enzo Life Sciences, ca: BML-KI105), diluted 200 times in buffer (50 mM Tris-HCl, pH 8, 137 mM NaCl, 2.7 mM KCl, 1 mM MgCl2) plus 2 μM TSA was added and, after 25 minutes at room temperature in the dark, using the Victor 1420 Multilabel Counter Perkin Elmer Wallac instrument, the fluorescence reading was carried out.
recombinant human HDAC1, sequence (Q13547 whole entry, canonical isoform): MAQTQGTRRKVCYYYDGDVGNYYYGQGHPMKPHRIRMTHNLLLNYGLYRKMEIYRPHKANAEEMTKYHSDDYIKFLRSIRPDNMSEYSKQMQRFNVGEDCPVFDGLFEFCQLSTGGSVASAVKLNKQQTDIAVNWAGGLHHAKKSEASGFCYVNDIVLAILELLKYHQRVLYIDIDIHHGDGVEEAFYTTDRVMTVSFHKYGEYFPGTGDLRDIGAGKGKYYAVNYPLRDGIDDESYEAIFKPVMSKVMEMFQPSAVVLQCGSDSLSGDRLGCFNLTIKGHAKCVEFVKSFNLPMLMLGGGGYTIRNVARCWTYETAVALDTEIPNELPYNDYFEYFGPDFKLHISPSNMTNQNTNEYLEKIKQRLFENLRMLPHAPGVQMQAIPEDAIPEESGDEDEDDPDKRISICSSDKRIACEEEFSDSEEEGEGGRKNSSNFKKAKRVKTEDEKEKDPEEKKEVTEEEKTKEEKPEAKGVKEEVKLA

A further test addresses recombinant human HDAC6 (Homo sapiens (Human), UniProt Q9UBN7). The experiment in a line: Enzymatic screening, HDAC6 inhibition (fluorogenic FdL_G substrate). In kind it is biochemical. The procedure:
as §1

SMILES strings stand for the structures.

recombinant human HDAC6, sequence (Q9UBN7 whole entry): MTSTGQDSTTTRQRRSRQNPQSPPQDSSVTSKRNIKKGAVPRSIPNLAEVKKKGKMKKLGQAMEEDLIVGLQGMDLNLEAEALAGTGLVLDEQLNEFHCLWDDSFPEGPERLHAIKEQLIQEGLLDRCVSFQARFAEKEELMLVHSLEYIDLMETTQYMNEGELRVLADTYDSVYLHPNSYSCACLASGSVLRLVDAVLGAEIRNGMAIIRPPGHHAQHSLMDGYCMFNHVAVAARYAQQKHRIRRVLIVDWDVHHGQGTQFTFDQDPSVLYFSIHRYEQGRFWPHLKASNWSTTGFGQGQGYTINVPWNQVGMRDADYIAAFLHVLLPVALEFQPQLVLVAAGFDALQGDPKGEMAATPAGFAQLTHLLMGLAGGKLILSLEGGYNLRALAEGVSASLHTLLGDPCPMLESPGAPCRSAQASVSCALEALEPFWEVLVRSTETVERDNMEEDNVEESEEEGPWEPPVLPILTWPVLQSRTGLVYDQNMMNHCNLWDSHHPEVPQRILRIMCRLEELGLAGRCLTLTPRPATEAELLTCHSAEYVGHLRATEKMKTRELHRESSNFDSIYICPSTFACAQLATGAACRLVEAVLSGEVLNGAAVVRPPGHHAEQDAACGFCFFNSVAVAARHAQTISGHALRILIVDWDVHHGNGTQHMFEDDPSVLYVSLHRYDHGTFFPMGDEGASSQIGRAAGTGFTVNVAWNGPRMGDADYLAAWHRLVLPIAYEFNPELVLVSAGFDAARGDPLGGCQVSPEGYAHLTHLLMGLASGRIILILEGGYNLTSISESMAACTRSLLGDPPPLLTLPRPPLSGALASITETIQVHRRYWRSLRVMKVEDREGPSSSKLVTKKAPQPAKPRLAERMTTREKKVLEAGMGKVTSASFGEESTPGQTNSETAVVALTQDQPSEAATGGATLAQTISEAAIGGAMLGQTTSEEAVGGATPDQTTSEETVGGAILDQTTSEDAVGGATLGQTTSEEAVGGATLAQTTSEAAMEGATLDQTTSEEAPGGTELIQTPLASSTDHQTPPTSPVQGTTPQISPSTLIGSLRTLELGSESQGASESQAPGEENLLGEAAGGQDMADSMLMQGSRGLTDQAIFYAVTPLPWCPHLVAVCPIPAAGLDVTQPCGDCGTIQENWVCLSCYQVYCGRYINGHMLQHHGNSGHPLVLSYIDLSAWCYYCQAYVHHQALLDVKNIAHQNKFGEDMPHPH

In the case of `NCC(=O)Nc1cccc(-c2cn(Cc3c(F)cc(-c4nnc(C(F)F)o4)cc3F)nn2)c1` [Compd. 144, 2-amino-N-(3-(1-(4-(5-(difluoromethyl)-1,3,4-oxadiazol-2-yl)-2,6-difluorobenzyl)-1H-1,2,3-triazol-4-yl)phenyl)acetamide], the IC50 on recombinant human HDAC1 was greater than 200000 nM; on recombinant human HDAC6, 60 nM.
`O=C(Nc1cccc(-c2nc(Cc3c(F)cc(-c4nnc(C(F)F)o4)cc3F)no2)c1)N1CCOCC1` [Compd. 145, N-(3-(3-(4-(5-(difluoromethyl)-1,3,4-oxadiazol-2-yl)-2,6-difluorobenzyl)-1,2,4-oxadiazol-5-yl)phenyl)morpholine-4-carboxamide]: the IC50 on recombinant human HDAC1 is greater than 200000 nM; on recombinant human HDAC6, 61 nM.
The matching figures for `COc1ncc(NCc2ccc(-c3cn(Cc4c(F)cc(-c5nnc(C(F)F)o5)cc4F)nn3)cc2)cc1C(N)=O` [Compd. 154, 5-((4-(1-(4-(5-(difluoromethyl)-1,3,4-oxadiazol-2-yl)-2,6-difluorobenzyl)-1H-1,2,3-triazol-4-yl)benzyl)amino)-2-methoxynicotinamide]: greater than 200000 nM and 67 nM.
The matching figures for `C[C@@H](c1ccc(-c2nnc(C(F)F)o2)cn1)n1cc(-c2ccc(N)nc2)nn1` [Compd. 171, (S)-5-(1-(1-(5-(5-(difluoromethyl)-1,3,4-oxadiazol-2-yl)pyridin-2-yl)ethyl)-1H-1,2,3-triazol-4-yl)pyridin-2-amine]: greater than 200000 nM and 82 nM.
On the same counts, the results for `CC(C)(C)OC(=O)NCC(=O)Nc1cccc(-c2cn(Cc3c(F)cc(-c4nnc(C(F)F)o4)cc3F)nn2)c1` [Compd. 172, tert-butyl (2-((3-(1-(4-(5-(difluoromethyl)-1,3,4-oxadiazol-2-yl)-2,6-difluorobenzyl)-1H-1,2,3-triazol-4-yl)phenyl)amino)-2-oxoethyl)carbamate] are greater than 200000 nM and 86 nM.
Regarding `Nc1ccc(-c2cc(Cc3ccc(-c4nnc(C(F)F)o4)cc3)on2)cn1` [Compd. 202, 5-(5-(4-(5-(difluoromethyl)-1,3,4-oxadiazol-2-yl)benzyl)isoxazol-3-yl)pyridin-2-amine], the IC50 at recombinant human HDAC1 was greater than 200000 nM; at recombinant human HDAC6, 116 nM.
The matching figures for `NC(=O)c1cccc(-c2noc(Cc3ccc(-c4nnc(C(F)F)o4)cc3)n2)c1` [Compd. 226, 3-(5-(4-(5-(difluoromethyl)-1,3,4-oxadiazol-2-yl)benzyl)-1,2,4-oxadiazol-3-yl)benzamide]: greater than 200000 nM and 169 nM.
The matching figures for `Nc1ccc(-c2cn(C(Cc3ccc(Cl)cc3)c3ccc(-c4nnc(C(F)F)o4)cc3)nn2)cn1` (centres unmarked) [Compd. 231, 5-(1-(2-(4-chlorophenyl)-1-(4-(5-(difluoromethyl)-1,3,4-oxadiazol-2-yl)phenyl)ethyl)-1H-1,2,3-triazol-4-yl)pyridin-2-amine]: greater than 200000 nM and 197 nM.
Consider `CN1CC(=O)Nc2cc(-c3cn(Cc4c(F)cc(-c5nnc(C(F)F)o5)cc4F)nn3)ccc2C1` [Compd. 237, 8-(1-(4-(5-(difluoromethyl)-1,3,4-oxadiazol-2-yl)-2,6-difluorobenzyl)-1H-1,2,3-triazol-4-yl)-4-methyl-1,3,4,5-tetrahydro-2H-benzo[e][1,4]diazepin-2-one], for which the IC50 on recombinant human HDAC1 is greater than 200000 nM; at recombinant human HDAC6, 210 nM.
`FC(F)c1nnc(-c2ccc(Cc3nnc(-c4ccccc4)s3)cc2)o1` [Compd. 238, 2-(difluoromethyl)-5-(4-((5-phenyl-1,3,4-thiadiazol-2-yl)methyl)phenyl)-1,3,4-oxadiazole]: the figures for the IC50 on recombinant human HDAC1 and at recombinant human HDAC6 were greater than 200000 nM and 211 nM, respectively.
The matching figures for `Nc1ccc(-c2cn(C(CC3CCC3)c3ccc(-c4nnc(C(F)F)o4)cc3)nn2)cn1` (centres unmarked) [Compd. 242, 5-(1-(2-cyclobutyl-1-(4-(5-(difluoromethyl)-1,3,4-oxadiazol-2-yl)phenyl)ethyl)-1H-1,2,3-triazol-4-yl)pyridin-2-amine]: greater than 200000 nM and 252 nM.
The matching figures for `Nc1ccc(-c2noc(C(F)(F)c3ccc(-c4nnc(C(F)F)o4)cc3)n2)cn1` [Compd. 243, 5-(5-((4-(5-(difluoromethyl)-1,3,4-oxadiazol-2-yl)phenyl)difluoromethyl)-1,2,4-oxadiazol-3-yl)pyridin-2-amine]: greater than 200000 nM and 234 nM.
The matching figures for `O=C1NCc2ccc(-c3cn(Cc4ccc(-c5nnc(C(F)F)o5)cn4)cn3)cc21` [Compd. 292, 6-(1-((5-(5-(difluoromethyl)-1,3,4-oxadiazol-2-yl)pyridin-2-yl)methyl)-1H-imidazol-4-yl)isoindolin-1-one]: greater than 200000 nM and 30 nM.
`CS(=O)(=O)NCCC(c1ccc(-c2nnc(C(F)F)o2)cn1)n1cc(-c2ccc(N)nc2)nn1` (centres unmarked) [Compd. 293, N-(3-(4-(6-aminopyridin-3-yl)-1H-1,2,3-triazol-1-yl)-3-(5-(5-(difluoromethyl)-1,3,4-oxadiazol-2-yl)pyridin-2-yl)propyl)methanesulfonamide]: the IC50 on recombinant human HDAC1 was greater than 200000 nM; at recombinant human HDAC6, 31 nM.
The matching figures for `Nc1ccc(-c2cn(C(CN3CCCC3)c3ccc(-c4nnc(C(F)F)o4)cn3)nn2)cn1` (centres unmarked) [Compd. 301, 5-(1-(1-(5-(5-(difluoromethyl)-1,3,4-oxadiazol-2-yl)pyridin-2-yl)-2-(pyrrolidin-1-yl)ethyl)-1H-1,2,3-triazol-4-yl)pyridin-2-amine]: greater than 200000 nM and 64 nM.
The matching figures for `FC(F)c1nnc(-c2ccc(Cn3cc(-c4ccc(NC5=NCCN5)cc4)nn3)nc2)o1` [compd. 24, N-(4-(1-((5-(5-(difluoromethyl)-1,3,4-oxadiazol-2-yl)pyridin-2-yl)methyl)-1H-1,2,3-triazol-4-yl)phenyl)-4,5-dihydro-1H-imidazol-2-amine]: greater than 200000 nM and 7 nM.
The matching figures for `Nc1ccc(-c2cn(Cc3ncc(-c4nnc(C(F)F)o4)cn3)nn2)cn1` [compd. 125, 5-(1-((5-(5-(difluoromethyl)-1,3,4-oxadiazol-2-yl)pyrimidin-2-yl)methyl)-1H-1,2,3-triazol-4-yl)pyridin-2-amine]: greater than 200000 nM and 48 nM.
`CNC(=O)Nc1ccc(-c2nnc(Cc3ccc(-c4nnc(C(F)F)o4)cc3)o2)cn1` [compd. 170, 1-(5-(5-(4-(5-(difluoromethyl)-1,3,4-oxadiazol-2-yl)benzyl)-1,3,4-oxadiazol-2-yl)pyridin-2-yl)-3-methylurea]: the IC50 on recombinant human HDAC1 was greater than 200000 nM; on recombinant human HDAC6, 81 nM.
On the same counts, the results for `FC(F)c1nnc(-c2ccc(Cn3cc(-c4ccc5nc(N6CCCC6)[nH]c5c4)nn3)cc2)o1` [compd. 190, 2-(difluoromethyl)-5-(4-((4-(2-(pyrrolidin-1-yl)-1H-benzo[d]imidazol-6-yl)-1H-1,2,3-triazol-1-yl)methyl)phenyl)-1,3,4-oxadiazole] are greater than 200000 nM and 99 nM.
As to `Nc1cccc(-c2cn(Cc3ccc(-c4nnc(C(F)F)o4)cc3)cn2)c1` [compd. 197, 3-(1-(4-(5-(difluoromethyl)-1,3,4-oxadiazol-2-yl)benzyl)-1H-imidazol-4-yl)aniline], the results for the IC50 at recombinant human HDAC1 and at recombinant human HDAC6 were greater than 200000 nM and 107 nM, respectively.
On the same counts, the results for `FC(F)c1nnc(-c2ccc(Cn3cc(-c4ccccc4)nn3)cc2)o1` [compd. 234, 2-(difluoromethyl)-5-(4-((4-phenyl-1H-1,2,3-triazol-1-yl)methyl)phenyl)-1,3,4-oxadiazole] are greater than 200000 nM and 202 nM.
The matching figures for `FC(F)c1nnc(-c2ccc(Cn3nnc(-c4cccc(-c5cnc(N6CCOCC6)s5)c4)n3)cc2)o1` [compd. 253, 4-(5-(3-(2-(4-(5-(difluoromethyl)-1,3,4-oxadiazol-2-yl)benzyl)-2H-tetrazol-5-yl)phenyl)thiazol-2-yl)morpholine]: greater than 200000 nM and 352 nM.
The matching figures for `FC(F)c1nnc(-c2ccc(Cn3nnc(-c4cccs4)n3)cc2)o1` [compd. 261, 2-(difluoromethyl)-5-(4-((5-(thiophen-2-yl)-2H-tetrazol-2-yl)methyl)phenyl)-1,3,4-oxadiazole]: greater than 200000 nM and 181 nM.
For the molecule `O=C(Nc1cccc(-c2cn(Cc3ccc(-c4nnc(C(F)F)o4)cc3)cn2)c1)N1CCOCC1` [compd. 267, N-(3-(1-(4-(5-(difluoromethyl)-1,3,4-oxadiazol-2-yl)benzyl)-1H-imidazol-4-yl)phenyl)morpholine-4-carboxamide], the IC50 was greater than 200000 nM on recombinant human HDAC1 and 85 nM at recombinant human HDAC6.
On the same counts, the results for `Nc1ccc(-c2cn(C(CCNC(=O)C(F)F)c3ccc(-c4nnc(C(F)F)o4)cn3)nn2)cn1` (centres unmarked) [compd. 295, N-(3-(4-(6-aminopyridin-3-yl)-1H-1,2,3-triazol-1-yl)-3-(5-(5-(difluoromethyl)-1,3,4-oxadiazol-2-yl)pyridin-2-yl)propyl)-2,2-difluoroacetamide] are greater than 200000 nM and 32 nM.

The record behind these values is patent US20230286970A1, “NOVEL OXADIAZOLE-BASED SELECTIVE HDAC6 INHIBITORS” (ITALFARMACO S.P.A., priority 2020, published 2023).
